The structures appear in SMILES notation. Like-named read-outs stand apart in the source and are kept apart here.

The results in this text go back to patent publication US20170152226A1, “FUNCTIONALISED AND SUBSTITUTED INDOLES AS ANTI-CANCER AGENTS” (Novogen Ltd., priority 2014, published 2017).

What all share (test): Anti-proliferative activity, cell-titre luminescent viability assay
Common to all, as to assay type: cell-based

One test has as its system DU145. The note with it: read-out: IC50 Prostate DU145. As to the method:
(§1) The ability of compounds 3501-3540 and 3542-3545 to inhibit the proliferation of cancer cells representative of neuroblastoma, melanoma, prostate cancer, colorectal cancer, non-small cell lung carcinoma, and triple negative breast cancer was assessed. Briefly, a pre-determined number of cells as calculated from cell growth assays for each of the cell lines employed were seeded into their respective culture medium (using ATCC culture parameters—http://www.atcc.org) and cultured for 24 hours at 37° C. and 5% CO2 in 96-well culture plates. Once attached, each cell line was then exposed to increasing concentrations of each respective analogue (0.03, 0.3, 3 and 30 μM for compounds in Table 1; 0.1, 0.3, 1, 3, 10 and 30 μM for compounds in Table 2), cultured for a further 72 hours and exposed to cell-titre luminescent reagent (100 μL/well) for a further 30 min) to assess for cell viability. Luminescence was captured using an EnVision multilabel reader and the data for each analogue concentration was normalized, as a percentage, to the no treatment control. For compounds 3501, 3503, 3505-08, 3512-18, 3520, 3522-24 and 3531-36, semi-log plots of Percent of Control versus concentration were prepared and IC50 determined using linear regression analysis. For compounds 3502, 3504, 3509-11, 3519, 3521, 3525-30, 3537-40 and 3542-45, cell viability was normalized to control (vehicle alone) and dose-response curves, and half maximal effective concentration (EC50) values were determined using Graph Pad Prism 6 (nonlinear regression sigmoidal dose-response variable slope).

The next test has as its system MDA-MB-231. The note with it: read-out: IC50 Breast MDA-MB-231. As to the method: as §1
For the next test, the system named is SK-Mel-28. The settings on record: 72 hours, read-out: IC50 Melanoma SK-Mel-28. As to the method: as §1
The test system of a further test is SK-N-SH. The note with it: read-out: IC50 Neuroblastoma SK-N-SH. How it is done: as §1
A further test concerns PC3. The settings on record: read-out: IC50 Prostate PC3. As to the method:
as §1

The subject of the next test is A549. The note with it: read-out: IC50 Lung (NSLC) A549. As to the method: as §1
The next test relates to CaCo2. The note with it: read-out: IC50 Colorectal CaCo2. As to the method:
as §1

Where [1] appears, read: Homo sapiens, DU-145, 72 h, 0.1, 0.3, 1, 3, 10 and 30 μM, nonlinear regression sigmoidal dose-response (EC50).
[2] abbreviates: Homo sapiens, MDA-MB-231, 72 h, 0.1, 0.3, 1, 3, 10 and 30 μM, nonlinear regression sigmoidal dose-response (EC50).
The mark [3] stands for this setting: Homo sapiens, SK-MEL-28, 0.1, 0.3, 1, 3, 10 and 30 μM, nonlinear regression sigmoidal dose-response (EC50).
Setting [4] is: Homo sapiens, SK-N-SH, 72 h, 0.1, 0.3, 1, 3, 10 and 30 μM, nonlinear regression sigmoidal dose-response (EC50).
Where [5] appears, read: Homo sapiens, PC-3, 72 h, 0.1, 0.3, 1, 3, 10 and 30 μM, nonlinear regression sigmoidal dose-response (EC50).
Setting [6] is: Homo sapiens, A549, 72 h, 0.1, 0.3, 1, 3, 10 and 30 μM, nonlinear regression sigmoidal dose-response (EC50).
Where [7] appears, read: Homo sapiens, Caco-2, 72 h, 0.1, 0.3, 1, 3, 10 and 30 μM, nonlinear regression sigmoidal dose-response (EC50).
The mark [8] stands for this setting: Homo sapiens, DU-145, 72 h, 0.03, 0.3, 3 and 30 μM, linear regression of semi-log plots.
[9] abbreviates: Homo sapiens, MDA-MB-231, 72 h, 0.03, 0.3, 3 and 30 μM, linear regression of semi-log plots.
[10] abbreviates: Homo sapiens, SK-MEL-28, 0.03, 0.3, 3 and 30 μM, linear regression of semi-log plots.
Setting [11] is: Homo sapiens, SK-N-SH, 72 h, 0.03, 0.3, 3 and 30 μM, linear regression of semi-log plots.
The mark [12] stands for this setting: Homo sapiens, PC-3, 72 h, 0.03, 0.3, 3 and 30 μM, linear regression of semi-log plots.
The mark [13] stands for this setting: Homo sapiens, A549, 72 h, 0.03, 0.3, 3 and 30 μM, linear regression of semi-log plots.
Setting [14] is: Homo sapiens, Caco-2, 72 h, 0.03, 0.3, 3 and 30 μM, linear regression of semi-log plots.
Setting [15] is: 72 hours, 0.03, 0.3, 3 and 30 μM, linear regression of semi-log plots.

A word on the IC50: it is the concentration at which inhibition is half-maximal. As for `Cc1c(C)n(CCCN2CCN(C)CC2)c2ccc(Oc3ccc(C(=O)N4CCN(CCc5ccccc5)CC4)cc3)cc12` [Compound 3530], the IC50 in the test on DU145 (setting [1]) was 4.5 µM; with MDA-MB-231 (setting [2]) it was 2.1 µM; in the test on SK-Mel-28 (setting [3]), 3.9 µM; in the test with SK-N-SH (setting [4]) it was 1.6 µM; with PC3 (setting [5]), 4.8 µM; in the test with A549 (setting [6]) it was 2.4 µM. The IC50 in the test on CaCo2 (setting [7]) turned out to be 4.3 µM.

With `Cc1c(C)n(CCCN2CCN(C)CC2)c2ccc(Nc3ccc(C(=O)N4CCN(CCc5ccc(F)cc5)CC4)cc3)cc12` [Compound 3531, (4-((2,3-dimethyl-1-(3-(4-methylpiperazin-1-yl)propyl)-1H-indol-5-yl)amino)phenyl)(4-(4-fluorophenethyl)piperazin-1-yl)methanone], the IC50 with DU145 (setting [8]) amounted to 3.9 µM; in the test with MDA-MB-231 (setting [9]), 3.5 µM; in the test with SK-Mel-28 (setting [10]), 2.8 µM; in the test with SK-N-SH (setting [11]), 3.4 µM; in the test on PC3 (setting [12]) it was 4.6 µM; in the test with A549 (setting [13]), 3.9 µM. The IC50 with CaCo2 (setting [14]) came to 4.2 µM.

For the molecule `COc1ccc(CCN2CCN(C(=O)c3ccc(Nc4ccc5c(c4)c(C)c(C)n5CCCN4CCN(C)CC4)cc3)CC2)cc1` [Compound 3532, (4-((2,3-dimethyl-1-(3-(4-methylpiperazin-1-yl)propyl)-1H-indol-5-yl)amino)phenyl)(4-(4-methoxyphenethyl)piperazin-1-yl)methanone], the IC50 is 4 µM in the test on DU145 (setting [8]); 1.9 µM in the test on MDA-MB-231 (setting [9]); 2.7 µM with SK-Mel-28 (setting [10]); 2.3 µM in the test on SK-N-SH (setting [11]); 4.2 µM with PC3 (setting [12]); 2.2 µM with A549 (setting [13]). In addition, in the test on CaCo2 (setting [15]), the IC50 was determined as 3.1 µM.

Take `Cc1c(C)n(CCCN2CCN(C)CC2)c2ccc(Nc3ccc(C(=O)N4CCN(CCc5ccc6c(c5)OCO6)CC4)cc3)cc12` [Compound 3533, (4-(2-(benzo[d][1,3]dioxol-5-yl)ethyl)piperazin-1-yl)(4-((2,3-dimethyl-1-(3-(4-methylpiperazin-1-yl)propyl)-1H-indol-5-yl)amino)phenyl)methanone]: the IC50 in the test on DU145 (setting [8]) stood at 3.7 µM; in the test on MDA-MB-231 (setting [9]), 4.2 µM; in the test on SK-Mel-28 (setting [10]), 4.8 µM; in the test with SK-N-SH (setting [11]), 3.3 µM; in the test on PC3 (setting [12]) it was 3.3 µM; in the test with A549 (setting [13]) it was 3.7 µM. The IC50 in the test on CaCo2 (setting [14]) worked out at 3.9 µM.

With `COc1cccc(CCN2CCN(C(=O)c3ccc(Nc4ccc5c(c4)c(C)c(C)n5CCCN4CCN(C)CC4)cc3)CC2)c1` [Compound 3535, (4-((2,3-dimethyl-1-(3-(4-methylpiperazin-1-yl)propyl)-1H-indol-5-yl)amino)phenyl)(4-(3-methoxyphenethyl)piperazin-1-yl)methanone], the IC50 with DU145 (setting [8]) is 3.8 µM; in the test on MDA-MB-231 (setting [9]) it was 2.6 µM; in the test on SK-Mel-28 (setting [10]) it was 3.3 µM; in the test with SK-N-SH (setting [11]) it was 2.8 µM; in the test with PC3 (setting [12]) it was 3.7 µM; in the test with A549 (setting [13]), 2.7 µM. Also, the IC50 with CaCo2 (setting [14]) was 3 µM.

Consider `COc1ccc(CCN2CCN(C(=O)c3ccc(Nc4ccc5c(c4)c(C)c(C)n5CCCN4CCN(C)CC4)cc3)CC2)cc1` [Compound 3536, (4-((2,3-dimethyl-1-(3-(4-methylpiperazin-1-yl)propyl)-1H-indol-5-yl)amino)phenyl)(4-(4-methoxyphenethyl)piperazin-1-yl)methanone], for which the IC50 in the test on DU145 (setting [15]) amounted to 3.6 µM; with MDA-MB-231 (setting [15]), 2.5 µM; in the test on SK-Mel-28 (0.03, 0.3, 3 and 30 μM, linear regression of semi-log plots), 2.7 µM; in the test with SK-N-SH (setting [15]), 2.9 µM; with PC3 (setting [15]), 4.3 µM; with A549 (setting [15]), 3.1 µM. Moreover, the IC50 in the test on CaCo2 (setting [15]) amounted to 12.9 µM.

For the molecule `Cc1c(C)n(CCCN2CCN(C)CC2)c2ccc(Cc3cccc(C(=O)N4CCN(CCc5ccc6ccccc6c5)CC4)c3)cc12` [Compound 3537, (3-((2,3-dimethyl-1-(3-(4-methylpiperazin-1-yl)propyl)-1H-indol-5-yl)methyl)phenyl)(4-(2-(naphthalen-2-yl)ethyl)piperazin-1-yl)methanone], the IC50 in the test with DU145 (setting [1]) is 5.8 µM; in the test on MDA-MB-231 (setting [2]) it was 4.8 µM; in the test with SK-Mel-28 (setting [3]) it was 4.8 µM; in the test with SK-N-SH (setting [4]), 4.2 µM; in the test on PC3 (setting [5]) it was 8 µM; in the test on A549 (setting [6]), 3.6 µM. Further, the IC50 in the test on CaCo2 (setting [7]) worked out at 5 µM.

For the molecule `Cc1c(C)n(CCCN2CCN(C)CC2)c2ccc(Cc3cccc(C(=O)N4CCN(CCc5cccc6ccccc56)CC4)c3)cc12` [Compound 3539, (3-((2,3-dimethyl-1-(3-(4-methylpiperazin-1-yl)propyl)-1H-indol-5-yl)methyl)phenyl)(4-(2-(naphthalen-1-yl)ethyl)piperazin-1-yl)methanone], the IC50 in the test with DU145 (setting [1]) stood at 3.9 µM; in the test with MDA-MB-231 (setting [2]), 2.8 µM; in the test on SK-Mel-28 (setting [3]), 2.2 µM; in the test with SK-N-SH (setting [4]), 1.7 µM; in the test on PC3 (setting [5]), 3 µM; in the test on A549 (setting [6]) it was 3.9 µM. Also, the IC50 in the test with CaCo2 (setting [7]) is 4.6 µM.

On to `COc1ccc2cccc(CCN3CCN(C(=O)c4cccc(Cc5ccc6c(c5)c(C)c(C)n6CCCN5CCN(C)CC5)c4)CC3)c2c1` [Compound 3540, (3-((2,3-dimethyl-1-(3-(4-methylpiperazin-1-yl)propyl)-1H-indol-5-yl)methyl)phenyl)(4-(2-(7-methoxynaphthalen-1-yl)ethyl)piperazin-1-yl)methanone], for which the IC50 stood at 4.6 µM in the test with DU145 (setting [1]); 2.3 µM with MDA-MB-231 (setting [2]); 1.9 µM in the test with SK-Mel-28 (setting [3]); 1.7 µM in the test on SK-N-SH (setting [4]); 2.3 µM in the test on PC3 (setting [5]); 5 µM in the test on A549 (setting [6]). The IC50 in the test with CaCo2 (setting [7]) amounted to 4 µM.

With `Cc1c(C)n(CCCN2CCN(C)CC2)c2ccc(Cc3ccc(C(=O)N4CCN(CCc5ccc6ccccc6c5)CC4)cc3)cc12` [Compound 3542, (4-((2,3-dimethyl-1-(3-(4-methylpiperazin-1-yl)propyl)-1H-indol-5-yl)methyl)phenyl) (4-(2-(naphthalen-2-yl)ethyl)piperazin-1-yl)methanone], the half-maximal inhibitory concentration (IC50) in the test with DU145 (setting [1]) is 3.9 µM; in the test on MDA-MB-231 (setting [2]), 2.8 µM; in the test on SK-Mel-28 (setting [3]), 1.4 µM; with SK-N-SH (setting [4]), 1.6 µM; in the test on PC3 (setting [5]) it was 3.6 µM; in the test with A549 (setting [6]) it was 3.1 µM. Besides, the IC50 in the test on CaCo2 (setting [7]) amounted to 3.9 µM.

Regarding `COc1ccc2cc(CCN3CCN(C(=O)c4ccc(Cc5ccc6c(c5)c(C)c(C)n6CCCN5CCN(C)CC5)cc4)CC3)ccc2c1` [Compound 3543, (4-((2,3-dimethyl-1-(3-(4-methylpiperazin-1-yl)propyl)-1H-indol-5-yl)methyl)phenyl)(4-(2-(6-methoxynaphthalen-2-yl)ethyl)piperazin-1-yl)methanone], the IC50 in the test with DU145 (setting [1]) was found to be 1.7 µM; in the test on MDA-MB-231 (setting [2]) it was 1.3 µM; in the test with SK-Mel-28 (setting [3]) it was 2 µM; with SK-N-SH (setting [4]), 1.6 µM; in the test on PC3 (setting [5]) it was 1.8 µM; in the test on A549 (setting [6]), 1.5 µM. In the test on CaCo2 (setting [7]), the IC50 was found to be 1.5 µM.
